# Data published in paper PMC11477482 (Molecules, 2024).
# Tested on: RAW264.7 cells (mitochondrial O2− production)
# Assay: Mitochondrial antioxidant activity (MitoSOX, rotenone-induced superoxide)
# Type: cell-based, mouse
# Conditions: rotenone 20 μM alone, oxidative stress inducer
# Description: The human keratinocytes (HaCaT, CLS 300493, Eppelheim, Germany) cell line was cultured with Dulbecco’s Modified Eagle’s Medium (DMEM) (Sigma-Aldrich, St. Louis, MO, USA), supplemented with 10% (v/v) of heat-inactivated fetal bovine serum (FBS), 1% (v/v) antibiotic solution (from a 10,000 U/mL penicillin and 10,000 μg/mL streptomycin stock) (Gibco, Carlsbad, CA, USA), 3.7 g/L sodium bicarbonate, and 1 mM sodium pyruvate (Sigma-Aldrich, St. Louis, MO, USA). The cell culture of keratinocytes was detached with EDTA solution 1X (Sigma-Aldrich, St. Louis, MO, USA) when the cells reached 70–80% confluence in cell culture flasks. The mouse macrophage cell line (RAW 264.7, ATCC TIB-71, Manassas, VA, USA) was cultured in DMEM supplemented with 10% (v/v) non-inactivated FBS, 1% (v/v) antibiotic solution, 1.5 g/L sodium bicarbonate, and 1 mM sodium pyruvate. Macrophages were mechanically detached with a cell scraper and subcultured in (1:10) proportion of cellular suspension to a final volume of DMEM. The human monocytic cell line THP-1 (ATCC® TIB-202™, American Type Culture Collection, Manassas, VA, USA) was cultivated in RPMI 1640 supplemented with 10% inactivated FBS, 25 mM (D)-glucose, 10 mM HEPES, 1 mM sodium pyruvate, 100 U/mL penicillin, and 100 μg/mL streptomycin, and maintained at a cell density of 0.4 × 10^6 cells/mL. Cells were subcultured every 2 or 3 days and maintained in culture for 2–3 months, according to ATCC® instructions.
# Mitochondrial superoxide (O2^−) generation was determined using the MitoSOX Red kit, according to the manufacturer’s instructions. Briefly, 5.0 × 10^5 cells/mL were plated in a 12-well plate and incubated for 24 h at 37 °C. The cells were then exposed to the AA, AAG and AAGS solution (500 µM), and after 1 h, rotenone (20 μM) was added, followed by incubation for an additional 5 h. The cells were then carefully detached, transferred to microtubes, and centrifuged at 500× g for 3 min. The cell pellet was washed with HBSS solution (2 × 1 mL), resuspended in PBS solution, and 300 µL was collected in two microtubes for unstained (150 µL) and stained (150 µL) conditions. The stained cells were incubated with 100 μL of freshly prepared MitoSOX solution 2.5 µM at 37 °C for 15 min in the dark. The stained cells were washed with HBSS solution (2 × 1 mL), and the cell pellet was resuspended in 100 μL of PBS and analyzed by flow cytometry using a BD Accuri™ C6 cytometer (San Jose, CA, USA).
# CD86 and CD54 levels were analyzed by flow cytometry using the acquisition channels FL1 and FL4. Mitochondrial O2^− production was measured by flow cytometry using the acquisition channel FL2. The relative fluorescence intensity (RFI) of CD86 and CD54 (THP-1 maturation assay) and MitoSOX (mitochondrial antioxidant activity) in the control and chemical-treated cells, based on the geometric mean fluorescence intensity (MFI), was calculated according to the following equation: RFI=MFI of chemical treated cells−MFI of chemical treated unstained cells/MFI of control treated cells−MFI of control unstained cells ×100
compound,measurement,value
C=C(C)[C@H]1Cc2c(ccc3c2O[C@@H]2COc4cc(OC)c(OC)cc4[C@@H]2C3=O)O1 [Rotenone],relative fluorescence intensity (RFI) of MitoSOX,269.70 ± 11.63%
